Experimental data taken from DBAASP.
In brackets after ≈: the same amount, converted by molar mass.

Experiments:
Assay in all cases: ≥ marks a high value that may be exact or a test limit, other limits are often not marked, values filed in µg/mL are converted to µM
Salmonella enterica = test system: Salmonella enterica
Staphylococcus warneri = test system: Staphylococcus warneri
Enterococcus faecium = test system: Enterococcus faecium
[1] = test system: Escherichia coli K-12 D31
Staphylococcus aureus = test system: Staphylococcus aureus
[2] = test system: Escherichia coli DH5alpha
Bacillus subtilis = test system: Bacillus subtilis
Saccharomyces cerevisiae = test system: Saccharomyces cerevisiae
Morganella morganii = test system: Morganella morganii
[3] = test system: Staphylococcus haemolyticus
[4] = test system: Staphylococcus saprophyticus
Candida albicans = test system: Candida albicans
[5] = test system: Aeromonas hydrophila BCRC 13018
[6] = test system: Streptococcus agalactiae 819
[7] = test system: Streptococcus agalactiae BCRC 10787
[8] = test system: Pseudomonas aeruginosa ATCC 19660
Vibrio alginolyticus = test system: Vibrio alginolyticus
[9] = test system: Enterococcus faecalis BCRC 10066
[10] = test system: Helicobacter pylori ATCC 43504
Vibrio vulnificus 204 = test system: Vibrio vulnificus 204
Helicobacter pylori = test system: Helicobacter pylori
[11] = test system: Helicobacter pylori ATCC 700392
[12] = test system: Helicobacter pylori ATCC 43629
[13] = test system: Staphylococcus epidermidis RP62A/1
[14] = test system: Pseudomonas aeruginosa ATCC 27853
[15] = test system: Staphylococcus epidermidis RP62A
[16] = test system: Candida albicans ATCC 90028
[17] = test system: Staphylococcus aureus ATCC 25923
[18] = test system: Acinetobacter baumannii NM8
[19] = test system: Klebsiella pneumoniae ATCC 700603
[20] = test system: Stenotrophomonas maltophilia B32/4
[21] = test system: Escherichia coli ATCC 25726
Microsporum canis = test system: Microsporum canis
Aeromonas caviae = test system: Aeromonas caviae
Cryptococcus neoformans = test system: Cryptococcus neoformans
Enterococcus faecalis = test system: Enterococcus faecalis
Nocardia brasiliensis = test system: Nocardia brasiliensis
Trichophyton rubrum = test system: Trichophyton rubrum
Trichophyton simii = test system: Trichophyton simii
Aspergillus niger = test system: Aspergillus niger
Aspergillus fumigatus = test system: Aspergillus fumigatus
Escherichia coli = test system: Escherichia coli
[22] = test system: Pseudomonas aeruginosa ATCC 15692
[23] = test system: Enterococcus faecalis NCTC 12697
[24] = test system: Lactobacillus acidophilus NCTC 1723
[25] = test system: Escherichia coli ATCC 27325
[26] = test system: Streptococcus mutans NCTC 10449
[27] = test system: Escherichia coli ATCC 25922

Compound: CC[C@H](C)[C@H](NC(=O)[C@H](CC(C)C)NC(=O)[C@H](CCCCN)NC(=O)CNC(=O)[C@H](C)NC(=O)[C@H](Cc1cnc[nH]1)NC(=O)[C@@H](NC(=O)[C@H](CC(C)C)NC(=O)CNC(=O)[C@H](Cc1cnc[nH]1)NC(=O)[C@H](Cc1ccccc1)NC(=O)[C@@H](NC(=O)[C@H](CC(C)C)NC(=O)CNC(=O)[C@H](CC(C)C)NC(=O)[C@@H](N)Cc1ccccc1)[C@@H](C)CC)C(C)C)C(=O)N[C@@H](Cc1cnc[nH]1)C(=O)NCC(=O)N[C@@H](CC(C)C)C(=O)N[C@H](C(=O)N[C@@H](Cc1cnc[nH]1)C(=O)N[C@@H](CCCN=C(N)N)C(=O)N[C@@H](CC(N)=O)C(=O)N[C@@H](CCCN=C(N)N)C(=O)NCC(=O)O)[C@@H](C)CC [FLGLIFHGLVHAGKLIHGLIHRNRG]
- MIC (Salmonella enterica): 6 µM (≈ 16.7 µg/mL)
- MIC (Staphylococcus warneri): 15 µM (≈ 41.6 µg/mL)
- MIC (Enterococcus faecium): 15 µM (≈ 41.6 µg/mL)
- MIC [1]: 3 µM (≈ 8.33 µg/mL)
- MIC (Staphylococcus aureus): 1.5 µM (≈ 4.16 µg/mL)
- MIC [2]: 7.5 µM (≈ 20.8 µg/mL)
- MIC (Bacillus subtilis): ≥ 48 µM
- MIC (Saccharomyces cerevisiae): ≥ 384 µM
- MIC (Morganella morganii): 12 µM (≈ 33.3 µg/mL)
- MIC [3]: 7.5 µM (≈ 20.8 µg/mL)
- MIC [4]: 7.5 µM (≈ 20.8 µg/mL)
- MIC (Candida albicans): 96 µM (≈ 267 µg/mL)

Compound: CC[C@H](C)[C@H](NC(=O)[C@H](CC(C)C)NC(=O)[C@H](CCC(=O)O)NC(=O)[C@H](CCC(N)=O)NC(=O)[C@H](CC(C)C)NC(=O)[C@@H](NC(=O)[C@H](CCCCN)NC(=O)[C@H](CCC(N)=O)NC(=O)[C@@H](NC(=O)[C@@H](NC(=O)[C@H](CCC(=O)O)NC(=O)CNC(=O)[C@H](CO)NC(=O)[C@@H](NC(=O)[C@H](CCC(N)=O)NC(=O)[C@H](CCCCN)NC(=O)CNC(=O)[C@H](CCC(N)=O)NC(=O)[C@H](CC(C)C)NC(=O)[C@@H](N)CCC(N)=O)C(C)C)C(C)C)C(C)C)C(C)C)C(=O)N[C@@H](CCC(N)=O)C(=O)N[C@@H](CO)C(=O)N[C@H](C(=O)N[C@@H](C)C(=O)N[C@@H](CCCCN)C(=O)N1CCC[C@H]1C(N)=O)C(C)C [QLQGKQVSGEVVQKVLQELIQSVAKP]
- MIC [5]: 6.22 µM (≈ 17.6 µg/mL)
- MIC [6]: 6.22 µM (≈ 17.6 µg/mL)
- MIC [7]: 6.22 µM (≈ 17.6 µg/mL)
- MIC [8]: 6.22 µM (≈ 17.6 µg/mL)
- MIC (Vibrio alginolyticus): 6.22 µM (≈ 17.6 µg/mL)
- MIC [9]: 6.22 µM (≈ 17.6 µg/mL)
- MIC [10]: 4.23 µM (≈ 12 µg/mL)
- MIC (Vibrio vulnificus 204): 6.22 µM (≈ 17.6 µg/mL)
- MIC (Helicobacter pylori): 4.23 µM (≈ 12 µg/mL)
- MIC [11]: 4.23 µM (≈ 12 µg/mL)
- MIC [12]: 4.23 µM (≈ 12 µg/mL)

Compound: CC[C@H](C)[C@H](N)C(=O)N[C@@H](CC(C)C)C(=O)NCC(=O)N[C@@H](C)C(=O)N[C@H](C(=O)N[C@@H](CC(C)C)C(=O)N1CCC[C@H]1C(=O)N[C@@H](CC(C)C)C(=O)N[C@H](C(=O)N[C@@H](CO)C(=O)NCC(=O)N[C@@H](CC(C)C)C(=O)N[C@@H](CC(C)C)C(=O)N[C@@H](CO)C(=O)N[C@@H](CC(N)=O)C(=O)N[C@@H](CCCCN)C(=O)N[C@@H](CC(C)C)C(N)=O)C(C)C)[C@@H](C)CC [ILGAILPLVSGLLSNKL]
- MIC [13]: ≥ 128 µM
- MIC [14]: > 256 µM
- MIC [15]: ≥ 128 µM
- MIC [16]: ≥ 64 µM
- MIC [17]: 128 µM (≈ 220 µg/mL)
- MIC [18]: ≥ 128 µM
- MIC [19]: > 256 µM
- MIC [20]: ≥ 256 µM
- MIC [21]: ≥ 256 µM

Compound: CC[C@H](C)[C@H](NC(=O)[C@H](Cc1ccc(O)cc1)NC(=O)[C@H](Cc1cnc[nH]1)NC(=O)[C@H](CCCN=C(N)N)NC(=O)[C@H](CC(C)C)NC(=O)[C@H](C)NC(=O)[C@@H](NC(=O)[C@H](CC(C)C)NC(=O)[C@H](Cc1ccc(O)cc1)NC(=O)[C@H](CCCCN)NC(=O)[C@H](CC(N)=O)NC(=O)[C@H](CCSC)NC(=O)[C@H](CCC(=O)O)NC(=O)[C@H](CCC(=O)O)NC(=O)[C@@H]1CCCN1)[C@@H](C)O)C(=O)N[C@@H](CC(N)=O)C(=O)N[C@@H](CC(C)C)C(=O)N[C@H](C(=O)N[C@H](C(=O)N[C@@H](CCCN=C(N)N)C(=O)N[C@@H](CCC(N)=O)C(=O)N[C@@H](CCCN=C(N)N)C(=O)N[C@@H](Cc1ccc(O)cc1)C(N)=O)[C@@H](C)O)C(C)C [PEEMNKYLTALRHYINLVTRQRY]
- MIC (Microsporum canis): 3.44 µM (≈ 10 µg/mL)
- MIC (Aeromonas caviae): 13.7 µM (≈ 40 µg/mL)
- MIC (Cryptococcus neoformans): 6.87 µM (≈ 20 µg/mL)
- MIC (Enterococcus faecalis): 3.44 µM (≈ 10 µg/mL)
- MIC (Nocardia brasiliensis): 6.87 µM (≈ 20 µg/mL)
- MIC (Trichophyton rubrum): 5.16 µM (≈ 15 µg/mL)
- MIC (Trichophyton simii): 3.44 µM (≈ 10 µg/mL)
- MIC (Aspergillus niger): ≥ 34.4 µM
- MIC (Aspergillus fumigatus): 27.5 µM (≈ 80 µg/mL)
- MIC (Escherichia coli): 3.44 µM (≈ 10 µg/mL)
- MIC (Candida albicans): 5.16 µM (≈ 15 µg/mL)

Compound: CC[C@H](C)[C@H](NC(=O)[C@H](CO)NC(=O)[C@H](CC(N)=O)NC(=O)[C@H](CC(C)C)NC(=O)[C@H](Cc1ccc(O)cc1)NC(=O)[C@H](CCCCN)NC(=O)[C@H](CCCCN)NC(=O)[C@@H](NC(=O)[C@H](C)NC(=O)[C@H](CCSC)NC(=O)[C@H](CCC(N)=O)NC(=O)[C@H](CCCCN)NC(=O)[C@H](CCCN=C(N)N)NC(=O)[C@H](CC(C)C)NC(=O)[C@H](CCCN=C(N)N)NC(=O)[C@@H](NC(=O)[C@H](Cc1ccc(O)cc1)NC(=O)[C@H](CC(N)=O)NC(=O)[C@H](CC(=O)O)NC(=O)[C@@H](NC(=O)[C@H](Cc1ccccc1)NC(=O)[C@@H](NC(=O)[C@H](C)NC(=O)[C@H](CC(=O)O)NC(=O)[C@H](CO)NC(=O)[C@@H](N)Cc1cnc[nH]1)C(C)C)[C@@H](C)O)[C@@H](C)O)C(C)C)C(=O)N[C@@H](CC(C)C)C(=O)N[C@@H](CC(N)=O)C(N)=O [HSDAVFTDNYTRLRKQMAVKKYLNSILN]
- MIC [14]: 1.23 µM (≈ 4.1 µg/mL)
- MIC [17]: > 150 µM
- MIC [22]: ≥ 75.1 µM
- MIC [23]: ≥ 150 µM
- MIC [24]: ≥ 150 µM
- MIC [25]: ≥ 150 µM
- MIC [26]: ≥ 45.3 µM
- MIC [27]: 1.56 µM (≈ 5.2 µg/mL)
